Measured values from patent US4598084A, “Optically active derivatives of N-arylated oxazolidine-2-one, the process for preparing same and their application in therapeutics” (Delalande S.A., priority 1982, dated 1986).
Like-named read-outs stand apart in the source and are kept apart here.

What was measured:
[1] = biological target: T1, type B monoamine oxidase (MAO.B) (Rattus norvegicus, UniProt P19643); test: in vitro MAO.B inhibition on homogenized rat brain, phenylethylamine (PEA) substrate; assay type: biochemical, rats; conditions: Table 1, rat brain homogenate, read-out: MAO.B inhibition effect (P.E.A.) IC 50
T1 construct: the brains being removed, weighed, homogeneized; from tissue; host or cells: brain of orally dosed rats, homogenized
T1 sequence (P19643 1-520): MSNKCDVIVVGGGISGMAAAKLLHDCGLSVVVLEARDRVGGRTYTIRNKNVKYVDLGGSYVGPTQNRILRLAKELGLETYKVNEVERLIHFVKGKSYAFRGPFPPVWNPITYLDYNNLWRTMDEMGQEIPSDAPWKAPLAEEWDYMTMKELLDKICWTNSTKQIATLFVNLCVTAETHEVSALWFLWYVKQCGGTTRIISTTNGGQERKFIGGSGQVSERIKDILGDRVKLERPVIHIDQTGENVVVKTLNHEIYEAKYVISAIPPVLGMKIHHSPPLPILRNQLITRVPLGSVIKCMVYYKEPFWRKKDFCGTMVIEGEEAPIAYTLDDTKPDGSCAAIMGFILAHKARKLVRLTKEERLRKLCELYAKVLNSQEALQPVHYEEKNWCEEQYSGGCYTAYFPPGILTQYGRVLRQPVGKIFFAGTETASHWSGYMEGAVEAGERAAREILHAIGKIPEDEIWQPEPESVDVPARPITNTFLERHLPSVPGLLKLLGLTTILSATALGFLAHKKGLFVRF
Description: (§1) in vitro, on the homogeneized brain of rats, by measuring the dose inhibiting by 50% (IC 50) the activity of monoamine oxidase (MAO) by taking phenylethylamine (PEA) as substrate of type B monoamine oxidase (MAO.B) and serotonine (5-HT) as substrate of type A monoamine oxidase (MAO.A), according to the procedure described by M. STROLIN BENEDETTI et al. in: Monoamine oxidase Basic and Clinical Frontiers, publishers K. KAMISO-E. USDIN-T. NAGATSO-Excepta Medica (1982)-page 209);

[2] = biological target: T2, type A monoamine oxidase (MAO.A) (Rattus norvegicus, UniProt P21396); test: in vitro MAO.A inhibition on homogenized rat brain, serotonine (5-HT) substrate; assay type: biochemical, rats; conditions: Table 1, rat brain homogenate, read-out: MAO.A inhibition effect (5-HT) IC 50
T2 construct: the brains being removed, weighed, homogeneized; from tissue; host or cells: brain of orally dosed rats, homogenized
T2 sequence (P21396 1-526): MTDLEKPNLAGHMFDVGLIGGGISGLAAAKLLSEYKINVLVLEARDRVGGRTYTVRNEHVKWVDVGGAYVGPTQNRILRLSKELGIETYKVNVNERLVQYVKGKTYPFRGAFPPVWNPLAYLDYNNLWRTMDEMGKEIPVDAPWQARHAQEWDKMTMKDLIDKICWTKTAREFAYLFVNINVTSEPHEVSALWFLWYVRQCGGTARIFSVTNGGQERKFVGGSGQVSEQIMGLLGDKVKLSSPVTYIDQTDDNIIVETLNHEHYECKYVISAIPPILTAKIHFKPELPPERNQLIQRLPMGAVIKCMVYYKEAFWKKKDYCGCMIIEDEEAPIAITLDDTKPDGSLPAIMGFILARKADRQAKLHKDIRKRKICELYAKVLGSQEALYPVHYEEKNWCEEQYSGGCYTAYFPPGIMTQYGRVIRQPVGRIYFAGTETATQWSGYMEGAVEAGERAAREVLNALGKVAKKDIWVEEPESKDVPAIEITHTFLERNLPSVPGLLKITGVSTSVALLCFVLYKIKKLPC
Description: as §1

[3] = biological target: T1, type B monoamine oxidase (MAO.B); test: ex vivo brain MAO.B inhibition after single oral dose in rats, PEA substrate; conditions: for inhibition at 5 mg/kg / inhibition at 10 mg/kg / inhibition at 20 mg/kg: rat, po; for inhibition at 5 mg/kg: 5 mg/kg p.o.; for specificity and reversibility / level of activity: in words; for specificity and reversibility: compared with racemic; for level of activity: compared with racemic or dose; for inhibition at 10 mg/kg: 10 mg/kg p.o.; for inhibition at 20 mg/kg: 20 mg/kg p.o.
Description: (§2) ex vivo, on rats to which was administered orally a single dose of the compounds of formula (I) (or their pharmaceutically acceptable salts) or their corresponding racemic of formula (Io), in a 0.5% suspension in methylcellulose, the rats being sacrificed by being beheaded at varying times, the brains being removed, weighed, homogeneized and the determination of the MAOI activity being made by using serotonine and phenylethylamine, according to the procedure described by J. P. KAN and M. STROLIN-BENEDETTI in Life Sciences 26, 2165, (1980).

[4] = biological target: T2, type A monoamine oxidase (MAO.A); test: ex vivo brain MAO.A inhibition after single oral dose in rats, 5-HT substrate; conditions: for inhibition at 10 mg/kg: Table 3, 10 mg/kg p.o.; for inhibition at 20 mg/kg: Table 3, 20 mg/kg p.o.
Description: as §2

[5] = oral acute toxicity in mice (Miller and Tainter's method); assay type: in vivo; conditions: mouse, in vivo, mice, oral, read-out: Acute toxicity (mice) LD 50
Description: (§3) The results obtained in the in vitro test are shown in table 1 below and the results obtained in the ex vivo test, as well as the oral acute toxicity in mice evaluated according to MILLER and TAINTER's method [Proc. Soc.

mice = test: as above; assay type: in vivo; conditions: in words
Description: as §3

[6] = Table 3, rats, 30, unit inferred, read-out: % MAO inhibition effect after n hour(s), PEA
[7] = Table 3, rats, 1 hour, read-out: % MAO inhibition effect after n hour(s), PEA
[8] = Table 3, rats, 2 hours, read-out: % MAO inhibition effect after n hour(s), PEA
[9] = Table 3, rats, 4 hours, read-out: % MAO inhibition effect after n hour(s), PEA
[10] = Table 3, rats, 8 hours, read-out: % MAO inhibition effect after n hour(s), PEA
[11] = Table 3, rats, 24 hours, read-out: % MAO inhibition effect after n hour(s), PEA
[12] = Table 3, 5 mg/kg p.o., rats, 30, unit inferred, read-out: % MAO inhibition effect after n hour(s), 5-HT
[13] = Table 3, 5 mg/kg p.o., rats, 1 hour, read-out: % MAO inhibition effect after n hour(s), 5-HT
[14] = Table 3, 5 mg/kg p.o., rats, 2 hours, read-out: % MAO inhibition effect after n hour(s), 5-HT
[15] = Table 3, 5 mg/kg p.o., rats, 4 hours, read-out: % MAO inhibition effect after n hour(s), 5-HT
[16] = Table 3, 5 mg/kg p.o., rats, 8 hours, read-out: % MAO inhibition effect after n hour(s), 5-HT
[17] = Table 3, 5 mg/kg p.o., rats, 24 hours, read-out: % MAO inhibition effect after n hour(s), 5-HT
[18] = Table 2, rats, 1 hour, read-out: % MAO inhibition effect after n hour(s), PEA (IMAO.B)
[19] = Table 2, rats, 2 hours, read-out: % MAO inhibition effect after n hour(s), PEA (IMAO.B)
[20] = Table 2, rats, 4 hours, read-out: % MAO inhibition effect after n hour(s), PEA (IMAO.B)
[21] = Table 2, rats, 8 hours, read-out: % MAO inhibition effect after n hour(s), PEA (IMAO.B)
[22] = Table 2, rats, 24 hours, read-out: % MAO inhibition effect after n hour(s), PEA (IMAO.B)
[23] = Table 2, rats, 48 hours, read-out: % MAO inhibition effect after n hour(s), PEA (IMAO.B)
[24] = Table 2, rats, 72 hours, read-out: % MAO inhibition effect after n hour(s), PEA (IMAO.B)
[25] = Table 2, 5 mg/kg p.o., rats, 1 hour, read-out: % MAO inhibition effect after n hour(s), 5-HT (IMAO.A)
[26] = Table 2, 5 mg/kg p.o., rats, 2 hours, read-out: % MAO inhibition effect after n hour(s), 5-HT (IMAO.A)
[27] = Table 2, 5 mg/kg p.o., rats, 4 hours, read-out: % MAO inhibition effect after n hour(s), 5-HT (IMAO.A)
[28] = Table 2, 5 mg/kg p.o., rats, 8 hours, read-out: % MAO inhibition effect after n hour(s), 5-HT (IMAO.A)
[29] = Table 2, 5 mg/kg p.o., rats, 24 hours, read-out: % MAO inhibition effect after n hour(s), 5-HT (IMAO.A)
[30] = Table 2, 5 mg/kg p.o., rats, 48 hours, read-out: % MAO inhibition effect after n hour(s), 5-HT (IMAO.A)
[31] = Table 2, 5 mg/kg p.o., rats, 72 hours, read-out: % MAO inhibition effect after n hour(s), 5-HT (IMAO.A)
[32] = rats, 2 hours, read-out: % MAO inhibition effect after n hour(s), 5-HT
[33] = rats, 8 hours, read-out: % MAO inhibition effect after n hour(s), 5-HT
[34] = rats, 24 hours, read-out: % MAO inhibition effect after n hour(s), 5-HT

| Compound | IC50 [1] [nM] | IC50 [2] [µM] | inhibition at 5 mg/kg [3, 6] [%] | inhibition at 5 mg/kg [3, 7] [%] | inhibition at 5 mg/kg [3, 8] [%] | inhibition at 5 mg/kg [3, 9] [%] | inhibition at 5 mg/kg [3, 10] [%] | inhibition at 5 mg/kg [3, 11] [%] | inhibition at 5 mg/kg [4, 12] [%] | inhibition at 5 mg/kg [4, 13] [%] | inhibition at 5 mg/kg [4, 14] [%] | inhibition at 5 mg/kg [4, 15] [%] | inhibition at 5 mg/kg [4, 16] [%] | inhibition at 5 mg/kg [4, 17] [%] | LD50 ([5]; Table 3) [mg/kg] | inhibition at 5 mg/kg [3, 18] [%] | inhibition at 5 mg/kg [3, 19] [%] | inhibition at 5 mg/kg [3, 20] [%] | inhibition at 5 mg/kg [3, 21] [%] | inhibition at 5 mg/kg [3, 22] [%] | also measured |
| --- | --- | --- | --- | --- | --- | --- | --- | --- | --- | --- | --- | --- | --- | --- | --- | --- | --- | --- | --- | --- | --- |
| O=C1OC(CO)CN1c1ccc(OCc2cccc(Cl)c2)cc1 (racemic) [Racemic of (Ia), reference compound] | 20 | 0.6 | 79 | 78 | 79 | 68 | 47 | 1 | 21 | 18 | 20 | 9 | 0 | 2 | > 1000 | – | – | – | – | – | – |
| CNCC1CN(c2ccc(OCc3cccc(Cl)c3)cc2)C(=O)O1 (racemic) [Racemic of (Ib), reference compound] | 34 | 14 | – | – | – | – | – | – | – | – | – | – | – | – | – | 84 | 85 | 78 | 67 | 31 | inhibition at 5 mg/kg [3, 23]: 29%; inhibition at 5 mg/kg [3, 24]: 21%; inhibition at 5 mg/kg [4, 25]: 7%; inhibition at 5 mg/kg [4, 26]: 8%; inhibition at 5 mg/kg [4, 27]: 10%; inhibition at 5 mg/kg [4, 28]: 8%; inhibition at 5 mg/kg [4, 29]: 1%; inhibition at 5 mg/kg [4, 30]: 1%; inhibition at 5 mg/kg [4, 31]: 1%; LD50 ([5]; Table 2): > 1000 mg/kg |
| O=C1O[C@H](CO)CN1c1ccc(OCc2cccc(Cl)c2)cc1 [(Ia), [S(+)] 5-hydroxymethyl 3-p-(meta-chlorobenzyloxy)phenyl oxazolidine-2-one] | 85 | 9 | 47 | 47 | 43 | 30 | 5 | -5 | 3 | 3 | 2 | 3 | 0 | -2 | > 1000 | – | – | – | – | – | specificity and reversibility [3]: much greater specificity; level of activity [3]: activity increases with the dose administered; inhibition at 10 mg/kg [3, 8]: 66%; inhibition at 10 mg/kg [3, 10]: 36%; inhibition at 10 mg/kg [3, 11]: 6%; inhibition at 20 mg/kg [3, 8]: 77%; inhibition at 20 mg/kg [3, 10]: 50%; inhibition at 20 mg/kg [3, 11]: 5%; inhibition at 10 mg/kg [4, 32]: 5%; inhibition at 10 mg/kg [4, 33]: 1%; inhibition at 10 mg/kg [4, 34]: 0%; inhibition at 20 mg/kg [4, 32]: 7%; inhibition at 20 mg/kg [4, 33]: 3%; inhibition at 20 mg/kg [4, 34]: 0%; active doses relative to lethal 50 doses (mice): activities at doses much less than the lethal 50 doses |
| CNC[C@@H]1CN(c2ccc(OCc3cccc(Cl)c3)cc2)C(=O)O1 [(Ib), [R(+)] 5-N-methylaminomethyl 3-p-(meta-chlorobenzyloxy)phenyl oxazolidine-2-one] | 30 | 50 | – | – | – | – | – | – | – | – | – | – | – | – | – | 74 | 77 | 71 | 61 | 6 | specificity and reversibility [3]: much greater specificity and reversibility; level of activity [3]: level of activity similar to that of its racemic; inhibition at 5 mg/kg [3, 23]: 5%; inhibition at 5 mg/kg [3, 24]: 0%; inhibition at 5 mg/kg [4, 25]: -1%; inhibition at 5 mg/kg [4, 26]: 0%; inhibition at 5 mg/kg [4, 27]: 0%; inhibition at 5 mg/kg [4, 28]: 1%; inhibition at 5 mg/kg [4, 29]: -1%; inhibition at 5 mg/kg [4, 30]: -3%; inhibition at 5 mg/kg [4, 31]: 3%; LD50 ([5]; Table 2): > 1000 mg/kg; active doses relative to lethal 50 doses (mice): activities at doses much less than the lethal 50 doses |
